Patent publication US11820773B2, “Tricyclic compounds” (ALIGOS THERAPEUTICS, INC., priority 2020, dated 2023)

What follows are molecules tested on HBV (assay: HBV-DNA antiviral assay using HepG2.117 cells (intracellular HBV DNA by qPCR)). Details: Hepatitis B virus, 72 h, HBV DNA inhibition, 3 days incubation, 2% DMSO.
Format: cell-based, genotype D HBV
Protocol: The following assay procedure describes the HBV antiviral assay, using HepG2.117 cells, which carry a stably integrated genotype D HBV genome under the control of a Tet-off promoter, and intracellular HBV DNA quantification as endpoint. Cell viability is assessed in parallel by measuring the intracellular ATP content using CellTiter-Glo 2.0 (Promega).
On day 0, HepG2.117 cells (which are maintained in routine cell culture with doxycycline present in the medium at a final concentration of 1 μg/mL) were seeded in 96-well plates (white with clear bottom) at a density of 2.0×10^4 cells/well (0.1 mL/well) in medium without doxycycline to induce pgRNA transcription and subsequent formation of HBV particles. The cells were incubated at 37° C. and 5% CO2.
On day 1, medium was removed from each well, the test articles were diluted in culture medium without doxcycyline and 100 μL was added to cell culture wells (9 concentrations, 4-fold dilution). For each plate, 6 untreated (merely DMSO) wells were included. The final concentration of DMSO in the culture medium was 2%. Each plate was prepared in duplicate (one for HBV DNA extraction, one for CellTiter-Glo 2.0 measurement). The cells were incubated at 37° C. and 5% CO2 for 3 days.
On day 4, cell viability was assessed using CellTiter-Glo 2.0 and cell lysates were prepared for HBV DNA extraction and subsequent quantification by qPCR.
HBV DNA Quantification by qPCR
Medium was removed from each well and 100 μL of 0.33% NP-40 in H2O was added to each well. Plates were sealed, incubated at 4° C. for 5 mins, vortexed extensively and centrifuged briefly. Next, 35 μL of lysate was added to 65 μL QuickExtract DNA Extraction Solution (Epicentre) in a PCR plate for each well. PCR plate was incubated at 65° C. for 6 mins, 98° C. for 2 mins and finally cooled to 4° C. HBV DNA was then quantified by qPCR with HBV-specific primers and probes as specified in Table 1 using the Bio-Rad SSOAdvanced Universal Probes Supermix on a CFX96 machine (Bio-Rad). The PCR cycle program consisted of 95° C. for 3 mins, followed by 40 cycles at 95° C. for 10 sec and 60° C. for 30 sec.
A DNA standard was prepared by dilution of an IDT gBlock corresponding to the amplicon with concentrations ranging from 10^2 to 10^8 copies/input (i.e. per 4 μL) and used to generate a standard curve by plotting Cq values vs. HBV DNA standard concentration. The quantity of HBV DNA in each sample was determined by interpolating from the standard curve.
Cell viability was calculated as follows: % Cell viability=(luminescence value of test sample)/(average luminescence value of 2% DMSO control)×100%. HBV DNA inhibition was calculated as follows: 100−(HBV DNA copy number of test sample)/(average HBV DNA copy number of 2% DMSO control)×100%. No normalization to entecavir was required due to the excellent dynamic window of this assay. The CC50, EC50 and EC90 values were determined by dose-response curves fitted by GraphPad Prism using “log (agonist) vs. response—Variable slope”.

Row | SMILES | EC50 [nM]
1 | Cc1nnnn1-c1ccc(-n2c(=O)c3c(n4ncc(Cc5ccccc5)c24)CN(C(=O)c2ccc(Br)c(C(F)(F)F)c2)[C@H](C)C3)cc1 (stereo in doubt) [Compound 46a, rac-(11R)-5-benzyl-12-[4-bromo-3-(trifluoromethyl)benzoyl]-11-methyl-7-[4-(5-methyltetrazol-1-yl)phenyl]-2,3,7,12-tetrazatricyclo[7.4.0.0^2,6]trideca-1(9),3,5-trien-8-one] | < 50
2 | Cc1nnnn1-c1ccc(-n2c(=O)c3c(n4ncc(Cc5ccccc5)c24)CN(C(=O)c2ccc(Br)c(C(F)(F)F)c2)[C@@H](C)C3)cc1 (stereo in doubt) [Compound 46b, rac-(11S)-5-benzyl-12-[4-bromo-3-(trifluoromethyl)benzoyl]-11-methyl-7-[4-(5-methyltetrazol-1-yl)phenyl]-2,3,7,12-tetrazatricyclo[7.4.0.0^2,6]trideca-1(9),3,5-trien-8-one] | 50 to 500
3 | Cc1nnc(-c2ccc(-n3c(=O)c4c(n5ncc(Cc6ccccc6)c35)CN(C(=O)c3ccc(Br)c(C(F)(F)F)c3)[C@H](C)C4)cc2)[nH]1 (stereo in doubt) [Compound 47a, rac-(11R)-5-benzyl-12-[4-bromo-3-(trifluoromethyl)benzoyl]-11-methyl-7-[4-(5-methyl-4H-1,2,4-triazol-3-yl)phenyl]-2,3,7,12-tetrazatricyclo[7.4.0.0^2,6]trideca-1(9),3,5-trien-8-one] | < 50
4 | Cc1nnc(-c2ccc(-n3c(=O)c4c(n5ncc(Cc6ccccc6)c35)CN(C(=O)c3ccc(Br)c(C(F)(F)F)c3)[C@@H](C)C4)cc2)[nH]1 (stereo in doubt) [Compound 47b, rac-(11S)-5-benzyl-12-[4-bromo-3-(trifluoromethyl)benzoyl]-11-methyl-7-[4-(5-methyl-4H-1,2,4-triazol-3-yl)phenyl]-2,3,7,12-tetrazatricyclo[7.4.0.0^2,6]trideca-1(9),3,5-trien-8-one] | < 50
5 | C[C@@H]1Cc2c(n3ncc(CC4CCC4)c3n(-c3ccc(-c4nncn4C)cc3)c2=O)CN1C(=O)c1ccc(Br)c(Cl)c1 (stereo in doubt) [Compound 48a, rac-(11R)-12-(4-bromo-3-chloro-benzoyl)-5-(cyclobutylmethyl)-11-methyl-7-[4-(4-methyl-1,2,4-triazol-3-yl)phenyl]-2,3,7,12-tetrazatricyclo[7.4.0.0^2,6]trideca-1(9),3,5-trien-8-one] | < 50
6 | C[C@H]1Cc2c(n3ncc(CC4CCC4)c3n(-c3ccc(-c4nncn4C)cc3)c2=O)CN1C(=O)c1ccc(Br)c(Cl)c1 (stereo in doubt) [Compound 48b, rac-(11S)-12-(4-bromo-3-chloro-benzoyl)-5-(cyclobutylmethyl)-11-methyl-7-[4-(4-methyl-1,2,4-triazol-3-yl)phenyl]-2,3,7,12-tetrazatricyclo[7.4.0.0^2,6]trideca-1(9),3,5-trien-8-one] | 50 to 500
7 | C[C@@H]1Cc2c(n3ncc(Cc4ccccc4)c3n(-c3ccc(-c4ncnn4C)cc3)c2=O)CN1C(=O)c1ccc(Br)c(C(F)(F)F)c1 (stereo in doubt) [Compound 49a, rac-(11R)-5-benzyl-12-[4-bromo-3-(trifluoromethyl)benzoyl]-11-methyl-7-[4-(2-methyl-1,2,4-triazol-3-yl)phenyl]-2,3,7,12-tetrazatricyclo[7.4.0.0^2,6]trideca-1(9),3,5-trien-8-one] | < 50
8 | C[C@H]1Cc2c(n3ncc(Cc4ccccc4)c3n(-c3ccc(-c4ncnn4C)cc3)c2=O)CN1C(=O)c1ccc(Br)c(C(F)(F)F)c1 (stereo in doubt) [Compound 49b, rac-(11S)-5-benzyl-12-[4-bromo-3-(trifluoromethyl)benzoyl]-11-methyl-7-[4-(2-methyl-1,2,4-triazol-3-yl)phenyl]-2,3,7,12-tetrazatricyclo[7.4.0.0^2,6]trideca-1(9),3,5-trien-8-one] | 50 to 500
